Reference: the NIST ThermoML archive (doi:10.1016/j.jct.2014.09.014)

Details: Liquid, Vibrating tube method

CCCCn1cc[n+](C)c1C.O=S(=O)([N-]S(=O)(=O)C(F)(F)F)C(F)(F)F
mass density [kg/m3]
Details	100 kPa	1000 kPa	10000 kPa	20000 kPa	40000 kPa	60000 kPa	80000 kPa	100000 kPa	120000 kPa
278.15 K	1439.8	1440	1445.9	1452.2	1464	1475	1485.2	1494.7	1503.9
298.15 K	1420.9	1421.2	1427.5	1434.1	1446.5	1458	1468.8	1479	1488.7
313.15 K	1407.1	1407.5	1414	1420.9	1433.9	1445.8	1457	1467.3	1477.2
333.15 K	1388.5	1389	1396	1403.4	1417.1	1429.7	1441.4	1452.2	1462.6
348.15 K	1374.7	1375.3	1382.7	1390.4	1404.7	1417.8	1429.9	1441.1	1451.7
373.15 K	1351.1	1352.3	1360.4	1368.7	1384	1397.9	1410.6	1422.5	1433.6
398.15 K	1328.4	1329.7	1338.4	1347.4	1363.8	1378.5	1392.1	1404.6	1416
